Assay results reported in patent US20250304939A1, “TAILORED ANTI-FUNGAL DRUGS AND TOOLS TO DIAGNOSE INVASIVE FUNGAL INFECTIONS” (priority 2022, published 2025).

Assays:
A. fumigatus conidia [1] = assay: Biotin-tagged 30 amino acid peptide binding to heat-inactivated conidia, FITC-streptavidin flow cytometry; parameters: species or system Aspergillus fumigatus; conditions: for peptide binding to A. fumigatus conidia: 5 μg/ml N-term biotin-tagged peptide, 1×10^7 heat-inactivated conidia/ml
Procedure: (§1) A 30 amino acid peptide comprising the KLMAR sequence was generated with an N-terminal biotin-tag. […] 5 μg/ml of the N-term biotin-tagged peptides were incubated with 1×10^7 heat-inactivated conidia/ml from different Aspergillus species and from fungi belonging to the Mucorales order. The peptide binding was subsequently detected with a FITC-coupled streptavidin using flow cytometry (Beckman Coulter, Gallios).
Three 30 amino acid peptides from the CCP2 domain of MASP-1 were generated with an N-terminal biotin-tag. CCP2 Ctrl.Pep1: […], CCP2 Ctrl.Pep2: […], CCP2 Ctrl.Pep3: […]. 5 and 10 μg/ml of the N-term biotin-tagged peptides were incubated with 1×10^7 heat-inactivated A. fumigatus conidia/ml and the peptide binding was detected with a FITC-coupled streptavidin using flow cytometry (BD, Celesta).
5 μg/ml of the N-term biotin-tagged peptides with C→S mutations at position 7 (C7S), position 11 (C11S) and both positions (C7S+C11S) were incubated with 1×10^7 heat-inactivated A. fumigatus conidia/ml. The peptide binding was subsequently detected with a FITC-coupled streptavidin using flow cytometry (BD, Celesta).
5 μg/ml of the N-term biotin-tagged MASP-1 peptide were incubated with 1×10^7 heat-inactivated A. fumigatus conidia/ml in barbital buffer (containing Ca2+) with or without 20 mM EDTA that chelates the calcium. The peptide binding was subsequently detected with a FITC-coupled streptavidin using flow cytometry (Beckman Coulter, Gallios).
The binding of the MASP-1 peptide was compared to the binding of a MASP-3 peptide covering the same protein region and thus having partly overlapping amino acid sequences. MASP-1 peptide: […] (SEQ ID NO: 1). MASP-3 peptide: […] (SEQ ID NO: 3). 5 μg/ml of the N-term biotin-tagged peptides were incubated with 1×10^7 heat-inactivated A. fumigatus conidia/ml. The peptide binding was subsequently detected with a FITC-coupled streptavidin using flow cytometry (Beckman Coulter, Gallios).

HMEC-1 cells = assay: Peptide binding to human cells, flow cytometry; conditions: 5 μg/ml; 1×10^7 cells/ml
Procedure: (§2) 5 μg/ml of the N-term biotin-tagged MASP-1 peptide was incubated with THP-1 and HMEC-1 cells (1×10^7 cells/ml). The peptide binding was subsequently detected with a FITC-coupled streptavidin using flow cytometry (Beckman Coulter, Gallios).

THP-1 cells = assay: Peptide binding to human cells, flow cytometry; conditions: 5 μg/ml; 1×10^7 cells/ml
Procedure: as §2

A. niger = assay: Biotin-tagged peptide binding to heat-inactivated conidia, flow cytometry; parameters: species or system Aspergillus niger; conditions: 5 μg/ml
Procedure: as §1

A. terreus = assay: as above; parameters: species or system Aspergillus terreus; conditions: 5 μg/ml
Procedure: as §1

A. flavus = assay: as above; parameters: species or system Aspergillus flavus; conditions: 5 μg/ml
Procedure: as §1

Lichtemia corymbifera = assay: as above; conditions: 5 μg/ml
Procedure: as §1

Mucor circinelloides = assay: as above; conditions: 5 μg/ml
Procedure: as §1

Rhizopus arrhizus = assay: as above; conditions: 5 μg/ml
Procedure: as §1

Aspergillus fumigatus = assay: Recombinant MASP-1 binding to A. fumigatus growth stages, fluorescence microscopy; conditions: 5 μg/ml, resting conidia, swollen conidia, germ tubes and hyphae
Procedure: MASP-1 binding was tested on the different growth stages of A. fumigatus. First, the A. fumigatus conidia were incubated on microscopy glass slides for 0, 4, 8 and 16 hours to obtain resting conidia, swollen conidia, germ tubes and hyphae. Recombinant MASP-1 was then added in a concentration of 5 μg/ml and binding was detected with a pan anti-MASP-1/-3/MAP-1 monoclonal antibody 8B3 and Alexa fluor 488-coupled goat anti-mouse antibody. […] This is very surprising since until now, MASP-1 is known only to interact with endogenous pattern recognition molecules (PRMs) and not so-called pathogen-associated molecular patterns (PAMPs).
MASP-1, a serine protease from the complement system, binds directly to various pathogenic fungi, for example, Aspergillus fumigatus and this knowledge can be utilized to design a targeted antifungal compound. MASP-1 binding was tested on the different growth stages of A. fumigatus. First, the A. fumigatus conidia were incubated on microscopy glass slides for 0, 4, 8 and 16 hours to obtain resting conidia, swollen conidia, germ tubes and hyphae. Recombinant MASP-1 was then added in a concentration of 5 μg/ml and binding was detected with a pan anti-MASP-1/-3/MAP-1 monoclonal antibody 8B3 and Alexa fluor 488-coupled goat anti-mouse antibody.

A. fumigatus conidia [2] = assay: rMASP-1 (wild-type/mutated) binding to heat-inactivated conidia, flow cytometry; parameters: species or system Aspergillus fumigatus; conditions: 5 μg/ml, 1×10^7 heat-inactivated conidia/ml
Procedure: A. fumigatus conidia were heat-inactivated (15 min 121° C.) to eliminate contamination in the laboratory. 1×10^7 conidia/ml were incubated with 5 μg/ml recombinant wild-type MASP-1 (^444KLMAR^448) or mutated rMASP-1 (^444DDDDK^448). The binding of MASP-1 was detected using 10 μg/ml of a pan anti-MASP-1/-3/MAP-1 monoclonal antibody 8B3 followed by a FITC-conjugated goat anti-mouse polyclonal antibody. Binding was measured as the mean fluorescence intensity using flow cytometry (Beckman Coulter, Gallios).
The experiment in this example 2A was performed using the method as described in example 2.

## MASP-3 peptide: 30 aa MASP-3 peptide covering the same protein region, GRSLPTCLPECGQPSRSLPSLVKRIIGGRN (SEQ ID NO: 3) (listed as Homo sapiens) [reference compound]
A. fumigatus conidia [1]
  peptide binding to A. fumigatus conidia: did not bind
HMEC-1 cells
  peptide binding to HMEC-1 endothelial cell line: Neither of the 30 aa MASP peptides bind
THP-1 cells
  peptide binding to THP-1 monocytic cell line: Neither of the 30 aa MASP peptides bind

## MASP-1 peptide: 30 amino acid MASP-1 peptide GRSLPTCLPVCGLPKFSRKLMARIFNGRPA (SEQ ID NO: 1)
A. fumigatus conidia [1]
  peptide binding to A. fumigatus conidia: successfully bound
A. fumigatus conidia [1]; 5 μg/ml, barbital buffer (containing Ca2+) without EDTA
  peptide binding to A. fumigatus conidia with calcium: bound equally well
A. fumigatus conidia [1]; 5 μg/ml, barbital buffer with 20 mM EDTA
  peptide binding to A. fumigatus conidia without calcium: bound equally well
A. fumigatus conidia [1]; 5 and 10 μg/ml, heat-inactivated conidia, BD Celesta
  peptide binding to A. fumigatus conidia (median fluorescence intensity), CCP2 domain comparison: bound
A. niger
  peptide binding to A. niger conidia: successfully bound
A. terreus
  peptide binding to A. terreus conidia: successfully bound
A. flavus
  peptide binding to A. flavus conidia: successfully bound
Lichtemia corymbifera
  peptide binding to Lichtemia corymbifera conidia: successfully bound
Mucor circinelloides
  peptide binding to Mucor circinelloides conidia: successfully bound
Rhizopus arrhizus
  peptide binding to Rhizopus arrhizus conidia: successfully bound
HMEC-1 cells
  peptide binding to HMEC-1 endothelial cell line: did not show any binding
THP-1 cells
  peptide binding to THP-1 monocytic cell line: did not show any binding

B1: wild-type rMASP-1 (^444KLMAR^448): recombinant wild-type MASP-1, a serine protease from the complement system, containing 444KLMAR448 (protein, UniProt P48740 20-699, looked up)
Mannan-binding lectin serine …: HTVELNNMFGQIQSPGYPDSYPSDSEVTWNITVPDGFRIKLYFMHFNLESSYLCEYDYVKVETEDQVLATFCGRETTDTEQTPGQEVVLSPGSFMSITFRSDFSNEERFTGFDAHYMAVDVDECKEREDEELSCDHYCHNYIGGYYCSCRFGYILHTDNRTCRVECSDNLFTQRTGVITSPDFPNPYPKSSECLYTIELEEGFMVNLQFEDIFDIEDHPEVPCPYDYIKIKVGPKVLGPFCGEKAPEPISTQSHSVLILFHSDNSGENRGWRLSYRAAGNECPELQPPVHGKIEPSQAKYFFKDQVLVSCDTGYKVLKDNVEMDTFQIECLKDGTWSNKIPTCKIVDCRAPGELEHGLITFSTRNNLTTYKSEIKYSCQEPYYKMLNNNTGIYTCSAQGVWMNKVLGRSLPTCLPVCGLPKFSRKLMARIFNGRPAQKGTTPWIAMLSHLNGQPFCGGSLLGSSWIVTAAHCLHQSLDPEDPTLRDSDLLSPSDFKIILGKHWRLRSDENEQHLGVKHTTLHPQYDPNTFENDVALVELLESPVLNAFVMPICLPEGPQQEGAMVIVSGWGKQFLQRFPETLMEIEIPIVDHSTCQKAYAPLKKKVTRDMICAGEKEGGKDACAGDSGGPMVTLNRERGQWYLVGTVSWGDDCGKKDRYGVYSYIHHNKDWIQRVTGVRN
Aspergillus fumigatus
  recombinant MASP-1 binding to A. fumigatus growth stages: binding was detected for all growth stages
A. fumigatus conidia [2]
  binding of rMASP-1 to A. fumigatus conidia (mean fluorescence intensity): binds

B2: mutated rMASP-1 (^444DDDDK^448): recombinant MASP-1 in which 444KLMAR448 was substituted by DDDDK (SEQ ID NO: 4), activated version (protein, UniProt P48740 20-699, looked up, variant K444D L445D M446D A447D R448K)
Mannan-binding lectin serine …: HTVELNNMFGQIQSPGYPDSYPSDSEVTWNITVPDGFRIKLYFMHFNLESSYLCEYDYVKVETEDQVLATFCGRETTDTEQTPGQEVVLSPGSFMSITFRSDFSNEERFTGFDAHYMAVDVDECKEREDEELSCDHYCHNYIGGYYCSCRFGYILHTDNRTCRVECSDNLFTQRTGVITSPDFPNPYPKSSECLYTIELEEGFMVNLQFEDIFDIEDHPEVPCPYDYIKIKVGPKVLGPFCGEKAPEPISTQSHSVLILFHSDNSGENRGWRLSYRAAGNECPELQPPVHGKIEPSQAKYFFKDQVLVSCDTGYKVLKDNVEMDTFQIECLKDGTWSNKIPTCKIVDCRAPGELEHGLITFSTRNNLTTYKSEIKYSCQEPYYKMLNNNTGIYTCSAQGVWMNKVLGRSLPTCLPVCGLPKFSRDDDDKIFNGRPAQKGTTPWIAMLSHLNGQPFCGGSLLGSSWIVTAAHCLHQSLDPEDPTLRDSDLLSPSDFKIILGKHWRLRSDENEQHLGVKHTTLHPQYDPNTFENDVALVELLESPVLNAFVMPICLPEGPQQEGAMVIVSGWGKQFLQRFPETLMEIEIPIVDHSTCQKAYAPLKKKVTRDMICAGEKEGGKDACAGDSGGPMVTLNRERGQWYLVGTVSWGDDCGKKDRYGVYSYIHHNKDWIQRVTGVRN
modifications: activated
A. fumigatus conidia [2]
  binding of rMASP-1 to A. fumigatus conidia (mean fluorescence intensity): did not bind
A. fumigatus conidia [2]; listed as active mutated rMASP-1
  binding of rMASP-1 to A. fumigatus conidia (mean fluorescence intensity): Neither the active nor zymogen mutated rMASP-1 (44^4DDDDK^448) bound

B3: zymogen mutated rMASP-1: zymogen version of the mutated rMASP-1 (444DDDDK448) (protein, UniProt P48740 20-699, looked up, variant K444D L445D M446D A447D R448K)
pro-form: HTVELNNMFGQIQSPGYPDSYPSDSEVTWNITVPDGFRIKLYFMHFNLESSYLCEYDYVKVETEDQVLATFCGRETTDTEQTPGQEVVLSPGSFMSITFRSDFSNEERFTGFDAHYMAVDVDECKEREDEELSCDHYCHNYIGGYYCSCRFGYILHTDNRTCRVECSDNLFTQRTGVITSPDFPNPYPKSSECLYTIELEEGFMVNLQFEDIFDIEDHPEVPCPYDYIKIKVGPKVLGPFCGEKAPEPISTQSHSVLILFHSDNSGENRGWRLSYRAAGNECPELQPPVHGKIEPSQAKYFFKDQVLVSCDTGYKVLKDNVEMDTFQIECLKDGTWSNKIPTCKIVDCRAPGELEHGLITFSTRNNLTTYKSEIKYSCQEPYYKMLNNNTGIYTCSAQGVWMNKVLGRSLPTCLPVCGLPKFSRDDDDKIFNGRPAQKGTTPWIAMLSHLNGQPFCGGSLLGSSWIVTAAHCLHQSLDPEDPTLRDSDLLSPSDFKIILGKHWRLRSDENEQHLGVKHTTLHPQYDPNTFENDVALVELLESPVLNAFVMPICLPEGPQQEGAMVIVSGWGKQFLQRFPETLMEIEIPIVDHSTCQKAYAPLKKKVTRDMICAGEKEGGKDACAGDSGGPMVTLNRERGQWYLVGTVSWGDDCGKKDRYGVYSYIHHNKDWIQRVTGVRN
modifications: pro-form zymogen, enterokinase site
A. fumigatus conidia [2]
  binding of rMASP-1 to A. fumigatus conidia (mean fluorescence intensity): Neither the active nor zymogen mutated rMASP-1 (44^4DDDDK^448) bound
